The text below walks through data of paper PMC10935294, “Biodirected Screening and Preparation of Larimichthys crocea Angiotensin-I-Converting Enzyme-Inhibitory Peptides by a Combined In Vitro and In Silico Approach” (Molecules, 2024).

Where two headings read alike, the source gives them in different places. No end group written: not given here.

For assay [1], the target named is T1, ACE (Oryctolagus cuniculus, UniProt P12822).
T1 sequence (P12822 34-1310): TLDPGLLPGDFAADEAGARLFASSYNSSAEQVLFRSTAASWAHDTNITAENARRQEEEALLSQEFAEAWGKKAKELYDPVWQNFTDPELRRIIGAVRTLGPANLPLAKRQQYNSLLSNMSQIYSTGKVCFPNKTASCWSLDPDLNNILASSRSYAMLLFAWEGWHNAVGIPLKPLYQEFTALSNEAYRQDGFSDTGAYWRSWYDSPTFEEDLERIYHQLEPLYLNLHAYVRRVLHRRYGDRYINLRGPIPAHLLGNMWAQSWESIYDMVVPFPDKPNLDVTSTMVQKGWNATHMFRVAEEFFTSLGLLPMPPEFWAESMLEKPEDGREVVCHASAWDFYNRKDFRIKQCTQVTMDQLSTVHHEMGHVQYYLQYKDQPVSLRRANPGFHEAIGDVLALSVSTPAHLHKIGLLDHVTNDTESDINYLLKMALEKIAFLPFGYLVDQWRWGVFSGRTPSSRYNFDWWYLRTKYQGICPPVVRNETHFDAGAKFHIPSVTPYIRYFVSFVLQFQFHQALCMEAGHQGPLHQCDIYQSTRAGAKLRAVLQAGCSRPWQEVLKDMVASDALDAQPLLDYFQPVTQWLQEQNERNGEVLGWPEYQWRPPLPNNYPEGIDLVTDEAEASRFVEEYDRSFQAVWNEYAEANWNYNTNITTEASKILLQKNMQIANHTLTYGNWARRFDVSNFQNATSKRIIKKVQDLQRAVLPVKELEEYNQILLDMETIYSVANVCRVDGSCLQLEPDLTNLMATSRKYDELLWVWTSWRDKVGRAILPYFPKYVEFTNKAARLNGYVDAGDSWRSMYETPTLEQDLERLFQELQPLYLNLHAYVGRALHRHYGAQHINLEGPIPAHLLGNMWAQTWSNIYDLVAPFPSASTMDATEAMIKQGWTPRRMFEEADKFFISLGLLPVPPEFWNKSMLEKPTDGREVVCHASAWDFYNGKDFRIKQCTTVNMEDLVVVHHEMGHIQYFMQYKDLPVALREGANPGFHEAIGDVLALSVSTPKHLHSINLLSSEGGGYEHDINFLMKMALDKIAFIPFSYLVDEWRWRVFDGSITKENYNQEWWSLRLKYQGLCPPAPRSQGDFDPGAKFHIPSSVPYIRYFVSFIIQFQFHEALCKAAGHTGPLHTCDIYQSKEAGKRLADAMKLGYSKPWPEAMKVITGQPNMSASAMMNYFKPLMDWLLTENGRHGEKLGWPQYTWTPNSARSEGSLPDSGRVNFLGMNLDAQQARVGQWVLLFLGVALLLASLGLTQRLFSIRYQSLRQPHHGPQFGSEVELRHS
Put plainly: ACE-inhibitory activity (HHL substrate, HPLC determination of hippuric acid). The following applies: synthetic peptides, n = 3, mean ± SD; read-out: IC50 value before digestion. The assay is classed as biochemical. Here is the method:
(§1) The methods were previously established in our laboratory. […] Then, 60 μL of peptide samples (1 mg/mL) and 20 μL of ACE solution (0.1 U/mL) were placed in a 37 °C water bath for 10 min, and 50 μL of hippuryl-histidyl-leucine (HHL) solution (1 mM) was added to react for 60 min. Finally, the reaction was terminated by adding 1 M HCL (100 μL). The sample solution of the determination group was replaced by 60 μL boric acid buffer solution (pH = 8.3 0.3 M NaCl) in the control tube. Then, 10 μL boric acid buffer was put into the blank control tube instead of the ACE solution used in the control group. Column chromatography conditions were as follows: Waters-C18, 5 μm, 4.6 mm × 250 mm; detection wavelength: 228 nm; mobile phase: 80% A: 0.1% formic acid + 0.1% trifluoroacetic acid + 98% deionized water, 20% B: 100% acetonitrile; flow rate: 0.8 mL/min; column temperature: 30 °C; injection volume: 10 μL. The ACE-inhibition rate was calculated by Formula (1):(1) ACEinhibitoryrate%=(HAc−HAs)/([HA]c−[HA]H)×100% where HA is the concentration of hippuric acid, [HA]c is the concentration of HA in the control sample, [HA]s is the sample HA concentration, and [HA]H is the blank control HA concentration. The IC50 value was defined as the inhibitor concentration inhibiting 50% of ACE activity. First, the in vitro ACE inhibition rate was determined for samples of different concentrations. Then, the fitting curve and equation were drawn with the sample mass concentration as abscissa and ACE inhibition rate as ordinate. The value of IC50 was calculated according to the fitted curve.

Assay [2] addresses T1, ACE. Kind of assay: ACE-inhibitory activity after simulated in vitro gastrointestinal digestion (pepsin, trypsin). The assay is classed as biochemical. The following applies: pepsin pH 2, 2 h, then trypsin pH 7.5, 2 h, 37 °C; mean ± SD. Here is the method:
as §1
A slight modification of the research methodology based on the previous study was implemented. With slight modification, the peptide samples were dissolved in deionized water (1 mg/mL), adjusted the pH to 2 with 1 M HCl, pepsin (2% w/w) was added, and the reaction was run for 2 h at 37 °C in the temperature shaker. The reaction was adjusted to pH = 7.5 with 2 M NaOH, and trypsin (2% w/w) was added for 2 h. Then, it was placed in boiling water at 100 °C for 10 min and finally removed to wait for the temperature to decrease to room temperature and centrifuged to detect their ACE activity.

In assay [3] the target is T1, ACE. The following applies: cited from earlier work.

As to “INEMLDTK [INEMLDTK, Ile-Asn-Glu-Met-Leu-Asp-Try-Lys]”, the IC50 in assay [1] was 6.53 ± 0.21 µM; in assay [2], 15.65 ± 0.15 µM.
As for FDGSPVGY, the “Form of ACE inhibition” value in assay [3] is “competitively combine with the center site of ACE”.
In the case of “NWPWMK [NWPWMK, Asn-Trp-Pro-Trp-Met-Lys]”, the figures for the IC50 in assay [1] and in assay [2] were 6.23 ± 0.34 µM and 7.27 ± 0.17 µM, respectively.
The matching figures for “IHFGTTGK [IHFGTTGK, Ile-His-Phe-Gly-Thr-Thr-Gly-Lys]”: 5.34 ± 0.15 µM and 33.73 ± 0.23 µM.
Turning to VGLFPSRSF, the “Form of ACE inhibition” value in assay [3] (peptide from tilapia skin) was “non-competitive inhibition”.
Regarding “LYDHLGK [LYDHLGK, Leu-Tyr-Asp-His-Leu-Gly-Lys]”, the figures for the IC50 in assay [1] and in assay [2] were 9.41 ± 0.24 µM and 24.3 ± 0.29 µM, respectively.
For the substance VFDGVLRPGQ, the “Form of ACE inhibition” value in assay [3] is “non-competitive inhibition”.
Tyr-Asn-Leu [YNL]: in assay [3], the Reported activity result was “ACE-inhibitory activity”.
For the substance “FYEPFM [FYEPFM, Phe-Tyr-Glu-Pro-Phe-Met]”, the IC50 was 10.3 ± 0.21 µM in assay [1] and 11.4 ± 0.43 µM in assay [2].
Turning to VVLASLK, the IC50 in assay [3] (peptides from Pacific saury) was 962 µM.
With “IPYADFK [IPYADFK, Ile-Pro-Tyr-Ala-Asp-Phe-Lys]”, the IC50 was 0.63 ± 0.09 µM in assay [1] and 0.8 ± 0.08 µM in assay [2].
